In data set [1] the test system is E. coli ATCC 25922 NDM-1. It is filed as cell-based. The following applies: in combination with EDTA 100 μM (control for inhibition of NDM-1). On the procedure:
(§1) The in vitro susceptibility of meropenem in combination with the different compounds was evaluated against E. coli expressing NDM-1 in a broth microdilution assay. A 96-well plate was prepared with the compounds in a twofold dilution series (final concentrations 1024–0.5 mg/L) in Muller Hinton II broth (MHB-II) in combination with 2, 4, or 8 mg/L meropenem. EDTA (100 μM) was used in combination with meropenem as control for inhibition of NDM-1. Three–five colonies of E. coli ATCC 25922 NDM-1 were suspended in 0.90% saline solution and adjusted to the 0.5 McFarland turbidity standard. The bacterial suspension was diluted in MHB-II and adjusted to a final inoculum of 5 × 10^5 CFU/mL.

Data set [2] concerns the target NDM-1 (Klebsiella pneumoniae, UniProt C7C422). As to the kind of experiment: MBL inhibition assay, purified NDM-1, imipenem hydrolysis at 300 nm. It is filed as biochemical. The following applies: for IC50 against purified NDM-1: imipenem reporter substrate, 10 nM enzyme, 2.5% DMSO, highest inhibitor concentration 800 μM, N.I. and P. not defined. On the procedure:
(§2) The inhibitory activities of 1a–h and 2 against the purified NDM-1, GIM-1, and VIM-2 enzymes were evaluated (IC50 data in Table 1). The inhibitory activity was measured by monitoring nitrocefin hydrolysis for VIM-2 and GIM-1 and that of imipenem for NDM-1[19] at λ 482 and 300 nm, respectively. […] This may indicate that unlike the sulfur of captopril, that of 1a and 2 might not coordinate the zinc ions in the active site. Alternatively, this may be a result of disulfide formation under the conditions of the enzyme assay. The hydrophobic 1f–h precipitated during the enzyme assay and their inhibitory activities could therefore not be reliably measured. This is not unusual as the binding cleft of MBL inhibitors is hydrophobic, and accordingly, their inhibitors typically have poor aqueous solubility.[20] The inhibitors may be solubilized by careful dilution of dimethylsulfoxide (DMSO) stock solutions; however, this was not successful for compounds 1f–h.
(§3) The inhibitory activity (IC50) of 1a–h was studied against the MBL enzymes NDM-1, GIM-1, and VIM-2. The buffer used for the studies contained 50 mM HEPES at pH 7.2, 10 μM ZnSO4, 2.5% DMSO, and 0.4 mg/mL bovine serum albumin, used as a prevention of protein unfolding and loss of activity. The enzyme concentration of NDM-1 was 10 nM, of GIM-1 1 nM, and of VIM-2 100 pM. The inhibitors were dissolved in 100% DMSO, and a twofold dilution series was made with a final 2.5% DMSO in the assay. The highest inhibitor concentration was 800 μM. The reporter substrate for VIM-2 and GIM-1 was nitrocefin, while for NDM-1 imipenem, and their absorbance (concentration) was followed at the wavelengths 482 and 300 nm, respectively. L-Captopril and EDTA-Na were used as positive and water and DMSO as negative controls. Measurements were read for 30 min at 298 K.

Data set [3] has as its target VIM-2 (Escherichia coli, UniProt Q5U7L7). Kind of data set: MBL inhibition assay, purified VIM-2, nitrocefin hydrolysis at 482 nm. It is filed as biochemical. The conditions noted are these: for IC50 against purified VIM-2: nitrocefin reporter substrate, 100 pM enzyme, 2.5% DMSO, highest inhibitor concentration 800 μM, N.I. and P. not defined. On the procedure:
as §2, §3

Data set [4] can be described thus: Solubility in the MIC assay. It is filed as physicochemical. The following applies: Muller Hinton II broth. On the procedure: as §1
Table S2. Susceptibility assay with E. coli ATCC 25922 NDM-1
Compound Minimum inhibitory concentration (mg/L)
Meropenem:compound ratio Meropenem

The nature of data set [5]: in vitro. It counts as cell-based. The conditions noted are these: human; cell viability after 24 hours incubation, at least two independent experiments; read-out: Cytotoxicity IC50 in HeLa cells. As to the method:
The cytotoxicity of phosphonamidate monoesters was evaluated against HeLa cells (ATCC-CCL-2), which were maintained in Dulbecco’s modified Eagle medium (Thermo Fisher Scientific) supplemented with 10% (v/v) fetal bovine serum (Thermo Fisher Scientific), penicillin (100 units/mL), and streptomycin (100 μg/mL, both from Sigma) at 37 °C, 5% CO2. Cells were seeded in 96-well plates (Corning, Merck) at 20 × 10^3 cells/well and incubated for 24 h (37 °C, 5% CO2). Stock solutions of the compounds were prepared at 150 mM in DMSO (Sigma), and the cells were exposed to a serial dilution and incubated for 24 h. Subsequently, the cells were washed twice with culture medium, and the PrestoBlue reagent (Thermo Fischer Scientific) was directly added to the cells for cell viability determination (1:10 dilution in culture medium). Following recommended incubation times (manufacturer’s instructions), fluorescence was measured using a Spark plate reader (Tecan, Austria) at Ex/Em 560/590 nm and corrected for background fluorescence by including control wells containing only cell culture media (no cells). Data analysis was performed using GraphPad Prism 9.0.0 (GraphPad Software, USA). At least two independent experiments were performed.
Figure S1. Cytotoxicity dose-response curves of phosphonamidate monoesters as determined in HeLa cells. The cells were treated with the compounds at the indicated concentrations, and cell viability was measured after 24 hours incubation. The following IC50 values wer e determined to be (A) 69. 2 µM (SD = 1.0) for KAT -A-109-H2, (B) 201.4 µM (SD = 4.4) for KAT -A-102-H1 and (C) 90.7 µM (SD = 1.0) for KAT -A-118-H1. All remaining compounds (D - H) had IC50 values above 500 µM. Data is shown as mean ± SD of at least two independent experiments.
*A 1h, B 1e, C 1f, D 1a, E 1b, F 1d, G 1c. […]

Data set [6] deals with GIM-1 (Pseudomonas aeruginosa, UniProt Q704V1). As to the kind of experiment: MBL inhibition assay, purified GIM-1, nitrocefin hydrolysis at 482 nm. It counts as biochemical. The conditions noted are these: for IC50 against purified GIM-1: nitrocefin reporter substrate, 1 nM enzyme, 2.5% DMSO, highest inhibitor concentration 800 μM, N.I. and P. not defined. As to the method:
as §2, §3

pIC50: −log10 of the molar value.

Chain of GIM-1 (Q704V1 entry or part of it): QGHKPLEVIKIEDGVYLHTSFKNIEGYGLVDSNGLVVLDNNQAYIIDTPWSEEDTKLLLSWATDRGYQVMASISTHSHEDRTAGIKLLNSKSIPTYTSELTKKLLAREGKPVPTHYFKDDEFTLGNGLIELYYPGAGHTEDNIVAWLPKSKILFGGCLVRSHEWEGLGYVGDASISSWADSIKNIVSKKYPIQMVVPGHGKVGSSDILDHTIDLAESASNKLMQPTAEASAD
Chain of NDM-1 (C7C422 29-270 limits assumed): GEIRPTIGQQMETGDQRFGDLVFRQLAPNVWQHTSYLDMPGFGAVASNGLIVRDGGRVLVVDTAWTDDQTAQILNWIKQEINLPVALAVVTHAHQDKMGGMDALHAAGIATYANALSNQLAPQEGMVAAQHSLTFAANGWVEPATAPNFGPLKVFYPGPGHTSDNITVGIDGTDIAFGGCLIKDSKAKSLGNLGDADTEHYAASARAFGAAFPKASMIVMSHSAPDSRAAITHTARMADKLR

In the case of `O=C(O)CN(CCN(CC(=O)O)CC(=O)O)CC(=O)O` [EDTA], in data set [1], the “Minimum inhibitory concentration of meropenem” value is listed as < 2 mg/L.

What is called pIC50 is the negative decadic logarithm of the IC50, by convention in mol/L. Regarding `CCOP(=O)(NCc1ccccn1)C(CSC(C)=O)Cc1ccccc1` (racemic) [1e, S-((R/S)-2-((R/S)-(2-(Ethoxy((pyridine-2-ylmethyl)amino)phosphoryl)-3-phenylpropyl) Ethanethioate], the “IC50 against purified NDM-1” value in data set [2] is “N.I”. The “IC50 against purified VIM-2” value in data set [3] is reported as “N.I”. For the same compound, the “Solubility in MIC assay” value in data set [4] is recorded as “could not be dissolved”. For the same compound, in data set [5], the negative logarithm of the IC50 (pIC50) is 3.70.

On to `CCO[P@](=O)([C@@H](CSC(C)=O)Cc1ccccc1)N(Cc1ccccn1)Cc1ccccn1` (racemic) [1h, S-((R/S)-2-((R/S)-(Bis(pyridin-2-ylmethyl)amino)(ethoxy)phosphoryl)-3-phenylpropyl) Ethanethioate], for which, in data set [2], the “IC50 against purified NDM-1” value is recorded as “P”. Further, the “IC50 against purified VIM-2” value in data set [3] is given as “P”. Moreover, the pIC50 in data set [5] was 4.16. Besides, the “IC50 against purified GIM-1” value in data set [6] is given as “P”.

For orientation: IC50 means the concentration that inhibits the measured activity by half. Regarding `COP(=O)(CCSC(C)=O)NCc1ccccn1` (racemic) [1a, (R/S)-(2-(Methoxy((pyridin-2-ylmethyl)amino)phosphoryl)ethyl) Ethanethioate], the “IC50 against purified NDM-1” value in data set [2] is listed as “N.I”. Further, the “IC50 against purified VIM-2” value in data set [3] was “N.I”. The IC50 at 24 h in data set [5] was > 500 µM. The negative logarithm of the IC50 (pIC50) in data set [6] was 4.07.

As to `CCO[P@](=O)([C@@H](CSC(C)=O)Cc1ccccc1)N(C)Cc1ccccn1` (racemic) [1f, S-((R/S)-2-((R/S)-Ethoxy(methyl(pyridin-2-ylmethyl)amino)phosphoryl)-3-phenylpropyl) Ethanethioate], the “IC50 against purified NDM-1” value in data set [2] is given as “P”. In addition, the “IC50 against purified VIM-2” value in data set [3] is given as “P”. In addition, the “Solubility in MIC assay” value in data set [4] is given as “could not be dissolved”. For the same compound, the pIC50 in data set [5] is 4.04. Moreover, the “IC50 against purified GIM-1” value in data set [6] is “P”.

For the compound `COP(=O)(CCS)NCc1ccccn1` (centres unmarked) [compound 2], the “IC50 against purified NDM-1” value in data set [2] is listed as “N.I”. Also, in data set [3], the “IC50 against purified VIM-2” value was “N.I”. The “IC50 against purified GIM-1” value in data set [6] is “N.I”.

Consider `CCO[P@@](=O)(N[C@@H](C(=O)OC)c1ccccc1)[C@@H](CSC(C)=O)Cc1ccccc1` (mixture of isomers) [1g, Methyl (R)-2-(((R/S)-((R/S)-1-(Acetylthio)-3-phenylpropan-2-yl) (ethoxy)phosphoryl)amino)-2-phenylacetate], for which the “IC50 against purified NDM-1” value in data set [2] is “P”. The “IC50 against purified VIM-2” value in data set [3] is recorded as “P”. For the same compound, the “Solubility in MIC assay” value in data set [4] is “could not be dissolved”. Further, the “IC50 against purified GIM-1” value in data set [6] was “P”.

For `COC(=O)[C@H](NP(=O)(CCSC(C)=O)OC)c1ccccc1` (mixture of isomers) [1c, Methyl (R)-2-(((R/S)-(2-(Acetylthio)ethyl) (methoxy)phosphoryl)amino)-2-phenylacetate], the “IC50 against purified NDM-1” value in data set [2] is “N.I”. For the same compound, the negative-log IC50 (pIC50) was 3.30 in data set [3] and < 3.30 in data set [5]. Further, the “IC50 against purified GIM-1” value in data set [6] was “N.I”.

Regarding `COP(=O)(CCSC(C)=O)N(C)Cc1ccccn1` (racemic) [1b, (R/S)-(2-(Methoxy(methyl(pyridin-2-ylmethyl)amino)phosphoryl)ethyl) Ethanethioate], the results for the negative-log IC50 (pIC50) in data set [2] and in data set [6] were 3.45 and 3.96, respectively. Also, in data set [5], the half-inhibitory concentration (IC50) at 24 h was > 500 µM.

Source of the values: PMC8830069, “Metallo-β-Lactamase Inhibitor Phosphonamidate Monoesters” (ACS Omega, 2022).
